According to patent US8669072B2, “Oxadiazoline ligands for modulating the expression of exogenous genes via an ecdysone receptor complex” (Intrexon Corporation, priority 2003, dated 2014):

How the values were obtained:
[1] = molecular target: T1, GAL4 DBD (1-147)-CfEcR(DEF)/VP16AD-βRXREF-LmUSPEF (Choristoneura fumiferana, UniProt O77240); experiment: cell-based; conditions: for fold induction at 33.3 µM: 48 h, read-out: Fold Induction Average, 27-63 assay; for Rel Max FI, 27-63 assay: maximum fold induction relative to that of GS-E ligand
T1 construct: The wild-type D, E, and F domains from spruce budworm Choristoneura fumiferana EcR (“CfEcR-DEF”)
Protocol: Stably transfected cells were selected by Zeocin resistance. Individually isolated CHO cell clones were transiently transfected with a GAL4 RE-luciferase reporter (pFR Luc). 27-63 clone was selected using Hygromycin.
(§1) Cells were trypsinized and diluted to a concentration of 2.5×10^4 cells mL. 100 μL of cell suspension was placed in each well of a 96 well plate and incubated at 37° C. under 5% CO2 for 24 h. Ligand stock solutions were prepared in DMSO and diluted 300 fold for all treatments.
(§2) Luciferase reporter gene expression was measured 48 h after cell treatment using Bright-Glo™ Luciferase Assay System from Promega (E2650). Luminescence was detected at room temperature using a Dynex MLX microtiter plate luminometer.
(§3) Each assay was conducted in two separate wells, and the two values were averaged. Fold inductions were calculated by dividing relative light units (“RLU”) in ligand treated cells with RLU in DMSO treated cells. EC50s were calculated from dose response data using a three-parameter logistic model.

[2] = molecular target: T2, GAL4 DBD-CfEcR(DEF)/VP16AD-MmRXRE (Choristoneura fumiferana, UniProt O77240); experiment: 13B3 assay: luciferase reporter gene induction in stable CHO clone 13B3; format: cell-based; conditions: 33/33.3 μM ligand, 48 h, RLU relative to DMSO
T2 construct: The wild-type D, E, and F domains from spruce budworm Choristoneura fumiferana EcR (“CfEcR-DEF”)
Protocol: CHO cells were transiently transfected with transcription cassettes for GAL4 DBD-CfEcR(DEF) and for VP16AD-MmRXRF controlled by SV40e promoters. Stably transfected cells were selected using Hygromycin. Individually isolated CHO cell clones were transiently transfected with a GAL4 RE-luciferase reporter (pFR-Luc, Stratagene, La Jolla, Calif.). The 13B3 clone was selected using Zeocin.
as §1, §2, §3

Bombyx mori EcR (VBE) = molecular target: T3, Bombyx mori EcR (VBE) (Bombyx mori, UniProt P49881); experiment: Z3 assay: β-galactosidase reporter gene induction in HEK-293 clone Z3 (CVBE / 6XEcRE LacZ); format: cell-based; conditions: 33 μM ligand, 48 h, RLU relative to DMSO; for fold induction at 33 µM: HEK293, read-out: Fold Induction Average, Z3 assay
T3 construct: expressed in transfected cells; host or cells: Human HEK-293 cells, retrovirally infected, clone Z3
T3 sequence (P49881 86-606 limits assumed): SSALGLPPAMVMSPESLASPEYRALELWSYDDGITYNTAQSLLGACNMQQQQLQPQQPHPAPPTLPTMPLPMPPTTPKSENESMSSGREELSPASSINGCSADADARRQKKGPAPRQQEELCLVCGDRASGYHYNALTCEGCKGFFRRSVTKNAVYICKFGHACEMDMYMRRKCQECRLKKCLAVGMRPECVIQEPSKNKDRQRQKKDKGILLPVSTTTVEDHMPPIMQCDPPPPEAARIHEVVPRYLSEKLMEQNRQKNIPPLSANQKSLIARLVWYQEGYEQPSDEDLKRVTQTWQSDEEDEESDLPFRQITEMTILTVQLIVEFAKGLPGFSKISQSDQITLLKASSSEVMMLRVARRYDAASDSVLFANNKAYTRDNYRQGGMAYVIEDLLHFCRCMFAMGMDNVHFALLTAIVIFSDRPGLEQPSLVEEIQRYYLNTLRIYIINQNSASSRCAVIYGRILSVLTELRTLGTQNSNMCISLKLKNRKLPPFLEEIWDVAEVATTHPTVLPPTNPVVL
T3 sequence (P19793 1-462 partner): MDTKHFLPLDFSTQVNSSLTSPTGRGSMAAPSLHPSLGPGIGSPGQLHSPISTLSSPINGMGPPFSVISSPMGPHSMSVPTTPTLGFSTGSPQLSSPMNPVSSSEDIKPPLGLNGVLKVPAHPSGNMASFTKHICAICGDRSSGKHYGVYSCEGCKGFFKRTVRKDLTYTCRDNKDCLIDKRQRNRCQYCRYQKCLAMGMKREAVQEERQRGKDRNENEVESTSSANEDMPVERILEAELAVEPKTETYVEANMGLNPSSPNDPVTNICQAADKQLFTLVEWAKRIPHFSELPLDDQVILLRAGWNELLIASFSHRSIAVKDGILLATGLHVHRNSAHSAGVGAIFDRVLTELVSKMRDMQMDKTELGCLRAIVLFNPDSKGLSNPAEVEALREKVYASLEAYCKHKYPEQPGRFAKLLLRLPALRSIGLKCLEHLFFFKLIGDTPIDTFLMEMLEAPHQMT
Protocol: A synthetic ATG start codon was placed under the control of cytomegalovirus (CVBE) immediate early promoter and flanked by long terminal repeats (LTR). The reporter construct contained six copies of the ecdysone response element (EcRE) binding site placed upstream of LacZ and flanked on both sides with LTR sequences (6×EcRE).
Dilution cloning was used to isolate individual clones. Clones were selected using 450 ug/mL G418 and 100 ng/mL puromycin. Individual clones were evaluated based on their response in the presence and absence of test ligands.
Z3 cells were seeded into 96-well tissue culture plates at a concentration of 2.5×10^3 cells per well and incubated at 37° C. in 5% CO2 for twenty-four hours. Stock solutions of ligands were prepared in DMSO. […] The final concentration of DMSO was maintained at 0.03% in both controls and treatments.
Reporter gene expression was evaluated 48 hours after treatment of cells, β-galactosidase activity was measured using Gal Screen™ bioluminescent reporter gene assay system from Tropix (GSY1000). Fold induction activities were calculated by dividing relative light units (“RLU”) in ligand treated cells with RLU in DMSO treated cells. Luminescence was detected at room temperature using a Dynex MLX microtiter plate luminometer.
as §3

## CCc1ccc(C(=O)NN2C(c3cc(C)cc(C)c3)=NOC23CCOCC3)cc1 [RG-120005]
[1]
  EC50: > 33 µM
  fold induction at 33.3 µM: 0.8
  Rel Max FI, 27-63 assay: 0

## CC1(C)ON=C(c2cccc(C(F)(F)F)c2)N1NC(=O)COCc1ccccc1 [RG-120006]
[2]
  Fold Induction Average, 13B3 assay: 1.1
Bombyx mori EcR (VBE)
  Fold Induction Average, Z3 assay: 0.5

## Cc1cc(C)cc(C2=NOC3(CCOCC3)N2NC(=O)COCc2ccccc2)c1 [RG-120009]
[2]
  Fold Induction Average, 13B3 assay: 1.3
Bombyx mori EcR (VBE)
  Fold Induction Average, Z3 assay: 0.8

## COc1ccccc1C1=NOC(C)(C)N1NC(=O)c1ccco1 [RG-120012]
[2]
  Fold Induction Average, 13B3 assay: 0.7
Bombyx mori EcR (VBE)
  Fold Induction Average, Z3 assay: 0.7

## CCOC(=O)CCC(=O)NN1C(c2ccccc2)=NOC12CCCC2 [RG-120014]
Bombyx mori EcR (VBE)
  Fold Induction Average, Z3 assay: 1.1

## CC1(C)ON=C(c2ccc3c(c2)OCO3)N1NC(=O)Nc1ccccc1 [RG-120017]
[2]
  Fold Induction Average, 13B3 assay: 0.8
Bombyx mori EcR (VBE)
  Fold Induction Average, Z3 assay: 0.9

## COc1ccccc1C1=NOC(C)(C)N1NC(=O)COCc1ccccc1 [RG-120018]
[2]
  Fold Induction Average, 13B3 assay: 0.8
Bombyx mori EcR (VBE)
  Fold Induction Average, Z3 assay: 0.7

## Cc1cc(C)cc(C2=NOC3(CCOCC3)N2NC(=O)c2ccccc2)c1 [RG-120019]
[1]
  EC50: > 33 µM
  fold induction at 33.3 µM: 1.5
  Rel Max FI, 27-63 assay: 0

## CCc1c(OC)cccc1C(=O)NN1C(c2ccc(-c3ccccc3)cc2)=NOC1(C)C [RG-120020]
[2]
  Fold Induction Average, 13B3 assay: 1.3
Bombyx mori EcR (VBE)
  Fold Induction Average, Z3 assay: 0.2

## CCc1c(OC)cccc1C(=O)NN1C(c2ccc(OC(F)(F)F)cc2)=NOC1(C)C [RG-120022]
[1]
  EC50: > 33 µM
  fold induction at 33.3 µM: 0.3
  Rel Max FI, 27-63 assay: 0
Bombyx mori EcR (VBE)
  fold induction at 33 µM: 0.1

## CCc1c(OC)cccc1C(=O)NN1C(c2ccc3c(c2)OCO3)=NOC1(C)C [RG-120023]
[1]
  EC50: > 33 µM
  fold induction at 33.3 µM: 1.4
  Rel Max FI, 27-63 assay: 0
Bombyx mori EcR (VBE)
  fold induction at 33 µM: 0.2

## COc1ccccc1C1=NOC(C)(C)N1NC(=O)Nc1ccccc1 [RG-120025]
[2]
  Fold Induction Average, 13B3 assay: 0.9
Bombyx mori EcR (VBE)
  Fold Induction Average, Z3 assay: 0.8

## CC1(C)ON=C(c2ccc(OC(F)(F)F)cc2)N1NC(=O)COc1ccccc1 [RG-120029]
[2]
  Fold Induction Average, 13B3 assay: 1.5
Bombyx mori EcR (VBE)
  Fold Induction Average, Z3 assay: 0.7

## CC1(C)ON=C(c2ccc(OC(F)(F)F)cc2)N1NC(=O)c1ccccc1 [RG-120033]
[2]
  Fold Induction Average, 13B3 assay: 0.9
Bombyx mori EcR (VBE)
  Fold Induction Average, Z3 assay: 0.7

## CCOC(=O)CCC(=O)NN1C(c2ccc(OC)cc2OC)=NOC1(C)C [RG-120038]
Bombyx mori EcR (VBE)
  Fold Induction Average, Z3 assay: 0.2

## Cc1cc(C)cc(C2=NOC3(CCCC3)N2NC(=O)Cc2ccccc2)c1 [RG-120046]
[2]
  Fold Induction Average, 13B3 assay: 1.3
Bombyx mori EcR (VBE)
  Fold Induction Average, Z3 assay: 8.9

## COc1ccccc1C1=NOC(C)(C)N1NC(=O)c1cc2ccccc2s1 [RG-120047]
[2]
  Fold Induction Average, 13B3 assay: 973.9
Bombyx mori EcR (VBE)
  Fold Induction Average, Z3 assay: 31.9

## Cc1cc(C)cc(C2=NOC3(CCOCC3)N2NC(=O)COc2ccccc2)c1 [RG-120048]
Bombyx mori EcR (VBE)
  Fold Induction Average, Z3 assay: 1.0

## CCC1(C)ON=C(c2cc(C)cc(C)c2)N1NC(=O)COCc1ccccc1 (stereo not drawn) [RG-120050]
[2]
  Fold Induction Average, 13B3 assay: 0.9
Bombyx mori EcR (VBE)
  Fold Induction Average, Z3 assay: 3.5

## CC1(C)ON=C(c2cccc(C(F)(F)F)c2)N1NC(=O)C(F)(F)C(F)(F)Cl [RG-120059]
Bombyx mori EcR (VBE)
  Fold Induction Average, Z3 assay: 0.6

## COc1ccc(C2=NOC(C)(C)N2NC(=O)Cc2ccccc2)c(OC)c1 [RG-120078]
Bombyx mori EcR (VBE)
  Fold Induction Average, Z3 assay: 0.4

## CCc1c(OC)cccc1C(=O)NN1C(c2cccc(C(F)(F)F)c2)=NOC1(C)C [RG-120093]
[1]
  EC50: > 33 µM
  fold induction at 33.3 µM: 5
  Rel Max FI, 27-63 assay: 0
Bombyx mori EcR (VBE)
  fold induction at 33 µM: 0.2

## CC1(C)ON=C(c2cccc(C(F)(F)F)c2)N1NC(=O)c1cc2ccccc2s1 [RG-120108]
Bombyx mori EcR (VBE)
  Fold Induction Average, Z3 assay: 0.3

## CC1(C)ON=C(c2ccc(OC(F)(F)F)cc2)N1NC(=O)c1cc2ccccc2s1 [RG-120109]
Bombyx mori EcR (VBE)
  Fold Induction Average, Z3 assay: 0.2

## CCc1ccc(C(=O)NN2C(c3cccc(C(F)(F)F)c3)=NOC2(C)C)cc1 [RG-120148]
[1]
  EC50: > 33 µM
  fold induction at 33.3 µM: 0.7
  Rel Max FI, 27-63 assay: 0
Bombyx mori EcR (VBE)
  fold induction at 33 µM: 1.1

## COc1ccccc1C1=NOC(C)(C)N1NC(=O)Cc1ccccc1 [RG-120157]
Bombyx mori EcR (VBE)
  Fold Induction Average, Z3 assay: 0.9

## CCc1ccc(C(=O)NN2C(c3cc(C)cc(C)c3)=NOC2(C)CC)c(F)c1 (stereo not drawn) [RG-121513]
[1]
  EC50: ~10 µM
  fold induction at 33.3 µM: 1020
  Rel Max FI, 27-63 assay: 0.44

## CCc1ccc(C(=O)NN2C(c3ccccc3)=NOC23CCCC3)c(F)c1 [RG-121514]
[1]
  EC50: 3.89 µM
  fold induction at 33.3 µM: 1.7
  Rel Max FI, 27-63 assay: 0.5

## CCc1ccc(C(=O)NN2C(c3cc(C)cc(C)c3)=NOC23CCCC3)c(F)c1 [RG-121515]
[1]
  EC50: ~5 µM
  fold induction at 33.3 µM: 36.6
  Rel Max FI, 27-63 assay: 0.17

## CCc1ccc(C(=O)NN2C(c3ccccc3)=NOC2(C)C)c(F)c1 [RG-121516]
[1]
  EC50: > 33 µM
  fold induction at 33.3 µM: 7.9
  Rel Max FI, 27-63 assay: 0

## CCc1c(C(=O)NN2C(c3ccccc3)=NOC2(C)C)ccc2c1OCCO2 [RG-121517, 5-ethyl-2,3-dihydro-benzo[1,4]dioxine-6-carboxylic acid (5,5-dimethyl-3-phenyl-[1,2,4]oxadiazol-4-yl)-amide]
[1]
  EC50: ~20 µM
  fold induction at 33.3 µM: 3510
  Rel Max FI, 27-63 assay: 1.55

## CCc1c(C(=O)NN2C(c3cc(C)cc(C)c3)=NOC2(C)CC)ccc2c1OCCO2 (stereo not drawn) [RG-121518]
[1]
  EC50: 3.57 µM
  fold induction at 33.3 µM: 2340
  Rel Max FI, 27-63 assay: 1.08
